How the values were obtained:
Mus musculus [1] = organism: Mus musculus; experiment: Toxicity in NMRI mouse assessed as irritant dose 50 causing ear redness after 5 hours assessed per ear; type: organism-based; conditions: in vivo, topical_or_ocular
Mus musculus [2] = organism: Mus musculus; experiment: Toxicity in NMRI mouse assessed as irritant dose 50 causing ear redness after 24 hours assessed per ear; type: organism-based; conditions: in vivo

| SMILES | Activity (Mus musculus [1]) | Activity (Mus musculus [2]) [nmol] |
| --- | --- | --- |
| C=C(C)[C@]12C[C@@H](C)[C@@]34O[C@](Cc5ccccc5)(O[C@@H]1[C@@H]3C=C(COC(=O)Cc1ccc(OC)c(OC)c1)C[C@]1(O)C(=O)C(C)=C[C@@H]41)O2 [RESINIFERATOXIN METHYL ETHER] | 4.7 ×10⁻⁴ nmol | > 20 |
| C=C(C)[C@]12C[C@@H](C)[C@@]34O[C@](Cc5ccccc5)(O[C@@H]1[C@@H]3C=C(COC(=O)Cc1cc(OC)cc(OC)c1)C[C@]1(O)C(=O)C(C)=C[C@@H]41)O2 | 6.2 ×10⁻⁴ nmol | > 20 |
| C=C(C)[C@]1(O)C[C@@H](C)[C@@]2(O)[C@@H](C=C(COC(=O)Cc3ccccc3)C[C@]3(O)C(=O)C(C)=C[C@@H]23)[C@H]1O | > 100 nmol | > 100 |
| C=C(C)[C@]12C[C@@H](C)[C@@]34O[C@](Cc5ccccc5)(O[C@@H]1[C@@H]3C=C(COC(=O)CCCCC)C[C@]1(O)C(=O)C(C)=C[C@@H]41)O2 | 8.9 ×10⁻² nmol | > 10 |
| C=C(C)[C@]12C[C@@H](C)[C@@]34O[C@](Cc5ccccc5)(O[C@@H]1[C@@H]3C=C(CO)C[C@]1(O)C(=O)C(C)=C[C@@H]41)O2 | 1 nmol | > 20 |
| C=C(C)[C@]12C[C@@H](C)[C@@]34O[C@](CCCCCCCCCCCCC)(O[C@@H]1[C@@H]3C=C(COC(=O)CCCCCCCCCCCCC)C[C@]1(O)C(=O)C(C)=C[C@@H]41)O2 | > 60 nmol | > 60 |
| COC(=O)Cc1ccc(O)c(OC)c1 | 25 nmol | > 100 |
| C=C(C)[C@]12C[C@@H](C)[C@@]34O[C@](Cc5ccccc5)(O[C@@H]1[C@@H]3C=C(COC(=O)c1ccccc1)C[C@]1(O)C(=O)C(C)=C[C@@H]41)O2 | 1.2 ×10⁻² nmol | > 10 |
| C=C(C)[C@]12C[C@@H](C)[C@@]34O[C@](C)(O[C@@H]1[C@@H]3C=C(CO)C[C@]1(O)C(=O)C(C)=C[C@@H]41)O2 | > 100 nmol | 12.9 |
| C=C(C)[C@]1(O)C[C@@H](C)[C@@]2(O)[C@@H](C=C(CO)C[C@]3(O)C(=O)C(C)=C[C@@H]23)[C@H]1O [RESINIFERONOL] | > 100 nmol | > 100 |
| C=C(C)[C@]12C[C@@H](C)[C@@]34O[C@](C)(O[C@@H]1[C@@H]3C=C(COC(=O)Cc1cc(OC)cc(OC)c1)C[C@]1(O)C(=O)C(C)=C[C@@H]41)O2 | 2.6 ×10⁻² nmol | > 5 |
| C=C(C)[C@]12C[C@@H](C)[C@@]34O[C@](CCCCCCCCCCCCC)(O[C@@H]1[C@@H]3C=C(COC(=O)Cc1cc(OC)cc(OC)c1)C[C@]1(O)C(=O)C(C)=C[C@@H]41)O2 | > 5 nmol | > 5 |
| C=C(C)[C@]12C[C@@H](C)[C@@]34O[C@](Cc5ccccc5)(O[C@@H]1[C@@H]3C=C(COC(=O)Cc1ccc(O)c(OC)c1)C[C@]1(O)C(=O)C(C)=C[C@@H]41)O2 [RESINIFERATOXIN] | 1.6 ×10⁻⁵ nmol | > 20 |
| C=C(C)[C@]12C[C@@H](C)[C@@]34O[C@](CCCCCCCCCCCCC)(O[C@@H]1[C@@H]3C=C(CO)C[C@]1(O)C(=O)C(C)=C[C@@H]41)O2 | > 30 nmol | 0.8 |
| C=C(C)[C@]12C[C@@H](C)[C@@]34O[C@](Cc5ccccc5)(O[C@@H]1[C@@H]3C=C(COC(C)=O)C[C@]1(O)C(=O)C(C)=C[C@@H]41)O2 | > 10 nmol | > 10 |
| C=C(C)[C@]12C[C@@H](C)[C@@]34O[C@](Cc5ccccc5)(O[C@@H]1[C@@H]3C=C(COC(=O)Cc1ccccc1)C[C@]1(O)C(=O)C(C)=C[C@@H]41)O2 | 1.7 ×10⁻³ nmol | > 10 |
